Tests used:
[1] = tested on: AKT; test: Inhibition of IGF-I stimulated AKT phosphorylation (Ser473) in Rh1 cells, Western blot; format: cell-based, human; conditions: for inhibition of AKT phosphorylation: 2.5 μM, Rh1 cells serum free, IGF-I; for Inhibition (phosphorylation of AKT at Ser 473): 5 μM, 1 hour, serum starved Rh1 cells, IGF-I 10 ng/ml 10 minutes, average of two experiments
Description: Cell lines and growth conditions. The human cell lines Rh1, Rh18, and Rh30 (ATCC Deposit # CRL 2061) have been described, e.g., by Hazelton et al. Cancer Res 1987;47:4501-4507 and Hosoi et al. Cancer Res. 1999;59:886-894. Rh1, Rh18 and Rh30 cells can each be grown in antibiotic free RPMI-1640 medium (available from BioWhittaker, Walkersville, Md.), supplemented with 10% fetal bovine serum (available from HyClone Laboratories, Logan, Utah) and 2 mM L-glutamine (available from BioWhittaker, Walkersville, Md.) at 37° C. in an atmosphere of 5% CO2. For serum free experiments, cells can be cultured in modified N2E (MN2E) medium (DMEM/F-12, 1:1 mixture) (Sigma, St. Louis, Mo.) supplemented with 1 μg/ml human holo transferrin, 30 nM sodium selenite, 20 nM progesterone, 100 μM putrescine, 30 nM vitamin E phosphate, and 50 μM ethanolamine. Cells in MN2E medium containing 5 μg/ml bovine fibronectin (available from Sigma, St. Louis, Mo.) are preferably plated, and allowed to attach overnight at 37° C. in a humidified, 5% CO2 atmosphere.
Cellular screening for inhibitors. Rh1, Rh18 and Rh30 cells can each be seeded at a density of 4×10^6/10-cm plate in serum-free medium for overnight attachment. The cells can then be exposed to 0.1% DMSO or to a test compound (for example, a phenoxazine or acridone compound) for one hour, then stimulated with Insulin-like growth factor-I (IGF-I) (10 ng/ml) for 10 minutes.
Western blot analysis. Cells are rapidly washed with ice-cold phosphate-buffered saline (PBS), placed on ice, and lysed in mammalian protein extraction reagent (M-PER; available from Pierce, Rockford, Ill.) containing one Complete™ mini protease inhibitor tablet (available from Boehringer Mannheim, Mannheim, Germany), 1 mM phenylmethylsulfonyl fluoride, 1 mM Na3VO4 and 1 mM NaF. Cellular debris is pelleted by centrifugation at 17,500×g for 10 minutes at 4° C. The protein concentration of the supernatants is measured by the bicinchoninic acid assay (e.g., using the BCA™ Protein Assay Kit, Pierce, Rockford, Ill., catalog number 23225 or 23227) using bovine serum albumin as the standard.
For the analysis of AKT, ERK-1/2, mTOR, p70S6 kinase, ribosomal protein S6 (rpS6 or S6), and glycogen synthase kinase 3 (GSK-3), equivalent amounts of protein can be separated on a 12% SDS-polyacrylamide gel (available from BioRad, Hercules, Calif.) by electrophoresis and subsequently transferred to a nitrocellulose membrane (also available from BioRad). After a 1 hour incubation in 1×TBS containing 0.05% Tween 20 and 5% blocking reagent (skim milk) (available from Upstate Biotechnology, Lake Placid, N.Y.) at room temperature, the wet nitrocellulose membranes are incubated with appropriate antibodies (available from Cell Signaling Technology, Beverly, Mass.): rabbit polyclonal antiserum specific for the phosphorylated Ser473 or Thr308 of AKT (dilution 1:1000); rabbit polyclonal antiserum specific for phosphorylated Thr202/Tyr204 of ERK-1/2 (dilution 1:1000); rabbit polyclonal antiserum specific for phosphorylated Ser2448 or Ser2481 of mTOR (dilution 1:1000); rabbit polyclonal antiserum specific for phosphorylated Thr389 of p70S6 kinase (dilution 1:4000); rabbit polyclonal antiserum specific for phosphorylated Ser235/236 of rpS6 (dilution 1:1000); or rabbit polyclonal antiserum specific for phosphorylated Ser21/9 of GSK-3α/β (dilution 1:1000). Horseradish peroxidase-conjugated goat anti-rabbit IgG antibody (dilution 1:10,000) can be used as the secondary antibody. Immunoreactive protein can be visualized using Renaissance chemiluminescence reagent (available from Life Science Products Inc., Boston, Mass.).
For these assays, Rh1 cells are seeded in serum-free medium for overnight attachment. The serum starved Rh1 cells are then exposed to 1-5 μM of a compound in Table I for 1 hour before stimulating with IGF-I (10 ng/ml) for 10 minutes. […]

[2] = target: T1, AKT1ΔPH (Homo sapiens, UniProt P31749); test: In vitro kinase assay with recombinant AKT lacking the pleckstrin homology domain; format: biochemical; conditions: AKTΔPH versus full-length AKT
T1 construct: purchased Upstate Biotechnology
Description: In vitro inhibition of recombinant AKT. In vitro kinase assays can be performed using an active, recombinant, full length AKT1/PKBα protein (available from Upstate Biotechnology, Lake Placid, N.Y.) or with an active, recombinant AKT1/PKBα protein, referred to herein as AKT1ΔPH, that lacks the pleckstrin homology domain (also available from Upstate Biotechnology). 10 ng of the recombinant enzyme in 25 μl 1× kinase buffer (25 mM Tris, pH 7.5; 5 mM β-glycerol phosphate; 2 mM dithiothreitol; 0.1 mM Na3VO4; and 10 mM MgCl2) is mixed with 2.5 μl of DMSO and a test compound (5 μM). Samples are incubated on ice for 1 hour, at which time 1 μg of GSK-3 fusion protein (Cell Signaling Technology, Beverly, Mass., catalog #9278) is added followed by ATP (200 μM) to each reaction mixture. After incubating the suspensions at 30° C. for 30 minutes, the reaction can be terminated by the addition of 3×SDS sample buffer (187.5 mM Tris-HCl, pH 6.8; 6% SDS; 30% glycerol; 150 mM dithiothreitol; and 0.03% bromophenol blue). The samples are then boiled for five minutes. The proteins can be separated on a 12% SDS polyacrylamide gel, and subsequently transferred to a nitrocellulose membrane. The membranes are preferably incubated with rabbit polyclonal anti-phospho-GSK-3α/β (Ser21/9) antibody (available from Cell Signaling Technology, Beverly, Mass., catalog # 9331). […]

T1 sequence (P31749 118-480 limits assumed, stated change not applied): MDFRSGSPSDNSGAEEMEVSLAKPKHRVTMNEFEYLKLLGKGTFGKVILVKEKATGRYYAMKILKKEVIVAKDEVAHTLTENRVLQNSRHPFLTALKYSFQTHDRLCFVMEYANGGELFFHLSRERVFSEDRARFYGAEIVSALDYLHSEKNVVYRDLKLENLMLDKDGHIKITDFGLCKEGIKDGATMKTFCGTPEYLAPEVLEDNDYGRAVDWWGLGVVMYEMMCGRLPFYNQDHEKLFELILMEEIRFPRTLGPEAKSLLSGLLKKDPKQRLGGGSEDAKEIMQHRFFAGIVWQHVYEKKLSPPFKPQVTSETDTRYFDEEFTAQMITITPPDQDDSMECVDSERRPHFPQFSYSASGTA

For “10-[4′-[(β-hydroxyethyl)piperazino]butyl]-2-chlorophenoxazine [Compound 15B]”, the “inhibition of AKT phosphorylation” value [1] was “complete inhibition”, the “Inhibition (phosphorylation of AKT at Ser 473)” value [1] was “++++ (++++ ≈ 100% inhibition)” and the “ability to inhibit AKT kinase activity after deletion of the PH domain” value [2] was “unaffected by deletion of the PH domain”.
With `CCN(CC)CCCCN1c2ccccc2Oc2ccc(Cl)cc21` [Compound 10B, 10-[4′-(N-diethylamino)butyl]-2-chlorophenoxazine] the “inhibition of AKT phosphorylation” value [1] was “complete inhibition”, the “Inhibition (phosphorylation of AKT at Ser 473)” value [1] was “++++ (++++ ≈ 100% inhibition)” and the “ability to inhibit AKT kinase activity after deletion of the PH domain” value [2] was “unaffected by deletion of the PH domain”.

Source: patent publication US20060241108A1, “Substituted phenoxazines and acridones as inhibitors of AKT” (St. Jude Children's Research Hospital, priority 2005, published 2006)
